These compounds were tested against human recombinant H-PGDS (Homo sapiens, UniProt O60760) (assay: Fluorescence intensity h-PGDS TBA enzyme assay). Settings: Examples up to 622 (and 3a, 3b).
Assay type: biochemical

Sequence of human recombinant H-PGDS (O60760 whole entry): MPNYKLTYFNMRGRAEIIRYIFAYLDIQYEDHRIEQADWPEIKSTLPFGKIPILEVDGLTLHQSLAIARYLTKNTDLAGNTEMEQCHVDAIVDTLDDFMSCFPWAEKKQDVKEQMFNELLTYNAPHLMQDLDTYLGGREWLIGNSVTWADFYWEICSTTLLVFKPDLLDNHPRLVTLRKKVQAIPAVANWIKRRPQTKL

| IC50 | SMILES |
| --- | --- |
| 1.82 nM | O=C(NC1CCN(c2ccc(C(=O)c3ccccn3)cn2)CC1)c1ccc(-c2cccc(F)c2)nc1 [Example 149, 6-(3-Fluorophenyl)-N-{1-[5-(pyridin-2-ylcarbonyl)pyridin-2-yl]piperidin-4-yl}nicotinamide] |
| 0.96 nM | CCc1cn2nc(N3CCC(NC(=O)c4ccc(-c5cccc(F)c5)nc4)CC3)ccc2n1 [Example 154, N-[1-(2-Ethylimidazo[1,2-b]pyridazin-6-yl)piperidin-4-yl]-6-(3-fluorophenyl)nicotinamide] |
| 3.15 nM | CC[C@@H](C)c1nccnc1N1CCC(NC(=O)c2ccc(-c3cccc(F)c3)nc2)CC1 [Example 156, 6-(3-Fluorophenyl)-N-(1-{3-[(1R)-1-methylpropyl]pyrazin-2-yl}piperidin-4-yl)nicotinamide] |
| 1.58 nM | O=C(NC1CCN(c2nc3ccccc3o2)CC1)c1ccc(-c2cccc(F)c2)nc1 [Example 158, N-[1-(1,3-Benzoxazol-2-yl)piperidin-4-yl]-6-(3-fluorophenyl)nicotinamide] |
| 1.59 nM | CC(C)CN(C)C(=O)c1ccc(N2CCC(NC(=O)c3ccc(-c4cccc(F)c4)nc3)CC2)nn1 [Example 159, 6-[4-({[6-(3-Fluorophenyl)pyridin-3-yl]carbonyl}amino)piperidin-1-yl]-N-isobutyl-N-methylpyridazine-3-carboxamide] |
| 0.483 nM | Cc1cc(NC(=O)c2ccc(N3CCC(NC(=O)c4ccc(-c5cccc(F)c5)nc4)CC3)nn2)n(C)n1 [Example 160, N-(1,3-Dimethyl-1H-pyrazol-5-yl)-6-[4-({[6-(3-fluorophenyl)pyridin-3-yl]carbonyl}amino)piperidin-1-yl]pyridazine-3-carboxamide] |
| 14.5 nM | O=C(NC1CCN(c2ccc(C(=O)NCC3CCCCC3)nn2)CC1)c1ccc(-c2cccc(F)c2)nc1 [Example 163, N-(Cyclohexylmethyl)-6-[4-({[6-(3-fluorophenyl)pyridin-3-yl]carbonyl}amino)piperidin-1-yl]pyridazine-3-carboxamide] |
| 23.2 nM | CCc1cnc(CC)c(N2CCC(NC(=O)c3ccc(-c4cccc(F)c4)nc3)CC2)n1 [Example 169, N-[1-(3,6-Diethylpyrazin-2-yl)piperidin-4-yl]-6-(3-fluorophenyl)nicotinamide] |
| 1.77 nM | NC(=O)c1cc2c(nc1N1CCC(NC(=O)c3ccc(-c4cccc(F)c4)nc3)CC1)CCC2 [Example 170, 2-[4-({[6-(3-Fluorophenyl)pyridin-3-yl]carbonyl}amino)piperidin-1-yl]-6,7-dihydro-5H-cyclopenta[b]pyridine-3-carboxamide] |
| 1.41 nM | O=C(NC1CCN(c2ncc3cccnc3n2)CC1)c1ccc(-c2cccc(F)c2)nc1 [Example 171, 6-(3-Fluorophenyl)-N-(1-pyrido[2,3-d]pyrimidin-2-ylpiperidin-4-yl)nicotinamide] |
| 35 nM | O=C(NC1CCN(c2nccc(-c3cccc(F)c3)n2)CC1)c1ccc(-c2cccc(F)c2)nc1 [Example 172, 6-(3-Fluorophenyl)-N-{1-[4-(3-fluorophenyl)pyrimidin-2-yl]piperidin-4-yl}nicotinamide] |
| 16 nM | COc1cc2ncc(N3CCC(NC(=O)c4ccc(-c5cccc(F)c5)nc4)CC3)nc2cc1OC [Example 173, N-[1-(6,7-Dimethoxyquinoxalin-2-yl)piperidin-4-yl]-6-(3-fluorophenyl)nicotinamide] |
| 8.97 nM | O=C(NC1CCN(c2ncc3ccc(F)cc3n2)CC1)c1ccc(-c2cccc(F)c2)nc1 [Example 174, 6-(3-Fluorophenyl)-N-[1-(7-fluoroquinazolin-2-yl)piperidin-4-yl]nicotinamide] |
| 5.4 nM | Cc1nc(N2CCC(NC(=O)c3ccc(-c4cccc(F)c4)nc3)CC2)ccc1C#N [Example 175, N-[1-(5-Cyano-6-methylpyridin-2-yl)piperidin-4-yl]-6-(3-fluorophenyl)nicotinamide] |
| 68.4 nM | COc1cccc(-c2ccnc(N3CCC(NC(=O)c4ccc(-c5cccc(F)c5)nc4)CC3)n2)c1 [Example 177, 6-(3-Fluorophenyl)-N-{1-[4-(3-methoxyphenyl)pyrimidin-2-yl]piperidin-4-yl}nicotinamide] |
| 3.4 nM | O=C(NC1CCN(Cc2cccc(-c3ncccn3)c2)CC1)c1ccc(-c2cccc(F)c2)nc1 [Example 181, 6-(3-Fluorophenyl)-N-[1-(3-pyrimidin-2-ylbenzyl)piperidin-4-yl]nicotinamide] |
| 0.424 nM | O=C(NC1CCN(Cc2c[nH]nc2-c2ccccc2)CC1)c1ccc(-c2cccc(F)c2)nc1 [Example 182, 6-(3-Fluorophenyl)-N-{1-[(3-phenyl-1H-pyrazol-4-yl)methyl]piperidin-4-yl}nicotinamide] |
| 3.67 nM | COc1cc(CN2CCC(NC(=O)c3ccc(-c4cccc(F)c4)nc3)CC2)ccc1OC(C)C [Example 184, 6-(3-Fluorophenyl)-N-[1-(4-isopropoxy-3-methoxybenzyl)piperidin-4-yl]nicotinamide] |
| 1.79 nM | O=C(NC1CCN(CC2CCC=CO2)CC1)c1ccc(-c2cccc(F)c2)nc1 (centres unmarked) [Example 186, N-[1-(3,4-Dihydro-2H-pyran-2-ylmethyl)piperidin-4-yl]-6-(3-fluorophenyl)nicotinamide] |

The remaining lines, values behind:

| SMILES | IC50 |
| --- | --- |
| COC(=O)c1cc(C)nc(N2CCC(NC(=O)c3ccc(-c4cccc(F)c4)nc3)CC2)n1 [Example 150, Methyl 2-[4-({[6-(3-fluorophenyl)pyridin-3-yl]carbonyl}amino)piperidin-1-yl]-6-methylpyrimidine-4-carboxylate] | 1.8 nM |
| Nc1cc(N2CCC(NC(=O)c3ccc(-c4cccc(F)c4)nc3)CC2)ncn1 [Example 151, N-[1-(6-Aminopyrmidin-4-yl)piperidin-4-yl]-6-(3-fluorophenyl)nicotinamide] | 0.519 nM |
| O=C(NC1CCN(c2ncccc2C(=O)NCc2ccccc2)CC1)c1ccc(-c2cccc(F)c2)nc1 [Example 152, N-Benzyl-2-[4-({[6-(3-fluorophenyl)pyridin-3-yl]carbonyl}amino)piperidin-1-yl]nicotinamide] | 3.35 nM |
| O=C(NC1CCN(c2nc3ccccc3s2)CC1)c1ccc(-c2cccc(F)c2)nc1 [Example 153, N-[1-(1,3-Benzothiazol-2-yl)piperidin-4-yl]-6-(3-fluorophenyl)nicotinamide] | 1.89 nM |
| CC(C)c1nccnc1N1CCC(NC(=O)c2ccc(-c3cccc(F)c3)nc2)CC1 [Example 155, 6-(3-Fluorophenyl)-N-[1-(3-isopropylpyrazin-2-yl)piperidin-4-yl]nicotinamide] | 2.3 nM |
| CC(C)NC(=O)c1ccc(N2CCC(NC(=O)c3ccc(-c4cccc(F)c4)nc3)CC2)nn1 [Example 157, 6-[4-({[6-(3-Fluorophenyl)pyridin-3-yl]carbonyl}amino)piperidin-1-yl]-N-isopropylpyridazine-3-carboxamide] | 0.678 nM |
| Cn1c(-c2cccc(C#N)c2)nc2c(N3CCC(NC(=O)c4ccc(-c5cccc(F)c5)nc4)CC3)ncnc21 [Example 161, N-{1-[8-(3-Cyanophenyl)-9-methyl-9H-purin-6-yl]piperidin-4-yl}-6-(3-fluorophenyl)nicotinamide] | 3.85 nM |
| Cc1cnc(Cn2cnc3c(N4CCC(NC(=O)c5ccc(-c6cccc(F)c6)nc5)CC4)ncnc32)cn1 [Example 162, 6-(3-Fluorophenyl)-N-(1-{9-[(5-methylpyrazin-2-yl)methyl]-9H-purin-6-yl}piperidin-4-yl)nicotinamide] | 1.1 nM |
| O=C(NC1CCN(c2ccc(C(=O)NCCN3CCNC3=O)nn2)CC1)c1ccc(-c2cccc(F)c2)nc1 [Example 164, 6-[4-({[6-(3-Fluorophenyl)pyridin-3-yl]carbonyl}amino)piperidin-1-yl]-N-[2-(2-oxoimidazolidin-1-yl)ethyl]pyridazine-3-carboxamide] | 0.422 nM |
| O=C(NC1CCN(c2ncccc2C(=O)N2CCCC2)CC1)c1ccc(-c2cccc(F)c2)nc1 [Example 165, 6-(3-Fluorophenyl)-N-{1-[3-(pyrrolidin-1-ylcarbonyl)pyridin-2-yl]piperidin-4-yl}nicotinamide] | 1.16 nM |
| O=C(NC1CCN(c2ncc3ccccc3n2)CC1)c1ccc(-c2cccc(F)c2)nc1 [Example 166, 6-(3-Fluorophenyl)-N-(1-quinazolin-2-ylpiperidin-4-yl)nicotinamide] | 3.44 nM |
| COC(=O)c1cnc(N2CCC(NC(=O)c3ccc(-c4cccc(F)c4)nc3)CC2)cn1 [Example 167, Methyl 5-[4-({[6-(3-fluorophenyl)pyridin-3-yl]carbonyl}amino)piperidin-1-yl]pyrazine-2-carboxylate] | 3.13 nM |
| Cc1cc(NC(=O)c2cccnc2N2CCC(NC(=O)c3ccc(-c4cccc(F)c4)nc3)CC2)no1 [Example 168, 2-[4-({[6-(3-Fluorophenyl)pyridin-3-yl]carbonyl}amino)piperidin-1-yl]-N-(5-methylisoxazol-3-yl)nicotinamide] | 2.53 nM |
| Cc1nc(N)c2nc(N3CCC(NC(=O)c4ccc(-c5cccc(F)c5)nc4)CC3)cnc2n1 [Example 176, N-[1-(4-Amino-2-methylpteridin-6-yl)piperidin-4-yl]-6-(3-fluorophenyl)nicotinamide] | 0.759 nM |
| COc1ccc2ncnc(N3CCC(NC(=O)c4ccc(-c5cccc(F)c5)nc4)CC3)c2c1 [Example 178, 6-(3-Fluorophenyl)-N-[1-(6-methoxyquinazolin-4-yl)piperidin-4-yl]nicotinamide] | 0.735 nM |
| CCOc1cc(CN2CCC(NC(=O)c3ccc(-c4cccc(F)c4)nc3)CC2)ccc1O [Example 179, N-(1-(3-Ethoxy-4-hydroxybenzyl)piperidin-4-yl)-6-(3-fluorophenyl)nicotinamide] | 2.26 nM |
| Cc1cn(CCN2CCC(NC(=O)c3ccc(-c4cccc(F)c4)nc3)CC2)c(=O)[nH]c1=O [Example 180, 6-(3-Fluorophenyl)-N-{1-[2-(5-methyl-2,4-dioxo-34-dihydropyrimidin-1(2H)-yl)ethyl]piperidin-4-yl}nicotinamide] | 0.372 nM |
| O=C(NC1CCN(Cc2c[nH]c3cc(F)ccc23)CC1)c1ccc(-c2cccc(F)c2)nc1 [Example 183, N-{1-[(6-Fluoro-1H-indol-3-yl)methyl]piperidin-4-yl}-6-(3-fluorophenyl)nicotinamide] | 1.12 nM |
| CCn1cc(CN2CCC(NC(=O)c3ccc(-c4cccc(F)c4)nc3)CC2)cn1 [Example 185, N-{1-[(1-Ethyl-1H-pyrazol-4-yl)methyl]piperidin-4-yl}-6-(3-fluorophenyl)nicotinamide] | 11 nM |
